Results from patent US20250032465A1, “METHODS OF TREATING CNS DISORDERS” (HANGZHOU HIGHLIGHTLL PHARMACEUTICAL CO., LTD, priority 2021, published 2025).
pIC50: −log10 of the molar value. Like-named read-outs stand apart in the source and are kept apart here.

Key:
TYK2 [1] = molecular target: T1, TYK2 (Homo sapiens, UniProt P29597); test: TYK2 biochemical test (33P-ATP filter binding, Reaction Biology); settings: read-out: Inhibition of TYK2 (IC50)
T1 construct: purchased Reaction Biology Corp, Malvern, PA (contract testing)
T1 sequence (P29597 whole entry): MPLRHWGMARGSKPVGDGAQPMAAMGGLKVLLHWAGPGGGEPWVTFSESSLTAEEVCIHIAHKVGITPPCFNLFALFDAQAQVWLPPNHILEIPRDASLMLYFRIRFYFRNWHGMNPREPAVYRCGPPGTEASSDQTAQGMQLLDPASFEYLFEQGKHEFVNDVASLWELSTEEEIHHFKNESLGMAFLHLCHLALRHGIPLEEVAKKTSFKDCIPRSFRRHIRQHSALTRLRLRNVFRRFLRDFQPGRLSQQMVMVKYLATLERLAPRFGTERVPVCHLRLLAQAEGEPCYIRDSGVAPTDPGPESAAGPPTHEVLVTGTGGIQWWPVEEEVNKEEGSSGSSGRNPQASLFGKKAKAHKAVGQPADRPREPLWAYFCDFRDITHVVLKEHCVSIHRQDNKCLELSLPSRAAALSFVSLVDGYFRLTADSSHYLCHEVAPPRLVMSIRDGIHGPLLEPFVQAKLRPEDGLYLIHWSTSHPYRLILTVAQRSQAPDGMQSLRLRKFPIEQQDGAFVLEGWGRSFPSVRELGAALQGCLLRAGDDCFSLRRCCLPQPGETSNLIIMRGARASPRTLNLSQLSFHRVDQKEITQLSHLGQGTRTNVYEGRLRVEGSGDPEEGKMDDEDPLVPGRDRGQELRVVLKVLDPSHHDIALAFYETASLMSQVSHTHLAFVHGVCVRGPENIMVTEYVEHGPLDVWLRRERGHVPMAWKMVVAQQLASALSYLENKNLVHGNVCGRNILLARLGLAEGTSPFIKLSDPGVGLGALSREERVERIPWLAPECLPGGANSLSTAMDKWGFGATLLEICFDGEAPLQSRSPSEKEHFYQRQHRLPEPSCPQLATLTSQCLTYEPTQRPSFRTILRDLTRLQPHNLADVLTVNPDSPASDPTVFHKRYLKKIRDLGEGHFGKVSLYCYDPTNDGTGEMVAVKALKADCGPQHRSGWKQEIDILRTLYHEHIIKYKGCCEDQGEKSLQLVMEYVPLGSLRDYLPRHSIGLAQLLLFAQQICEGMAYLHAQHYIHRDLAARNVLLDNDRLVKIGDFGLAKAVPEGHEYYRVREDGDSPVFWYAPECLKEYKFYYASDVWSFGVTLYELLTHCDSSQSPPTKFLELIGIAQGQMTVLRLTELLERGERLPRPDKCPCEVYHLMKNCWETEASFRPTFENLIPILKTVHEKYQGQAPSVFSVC
Experimental: (§1) The tests were conducted by Reaction Biology Corp, Malvern, PA (Anastassiadis et al. Nat Biotechnol. 2011; 29(11):1039-45). The step is briefly described as follows, using the basic reaction buffer: 20 mM Hepes (pH 7.5), 10 mM MgCl2, 1 mM EGTA, 0.02% Brij35, 0.02 mg/ml BSA, 0.1 mM Na3VO4, 2 mM DTT and 1% DMSO. The required cofactor was added to each kinase reaction respectively. Each reaction was performed according to the following reaction steps: 1) Preparing the designated substrate in the newly prepared basic reaction buffer; 2) Transferring the required cofactor to the above matrix solution; 3) Transferring the designated kinase to the substrate solution and mixing well slightly; 4) Transferring a compound of Formula (I) in DMSO to the kinase reaction mixture with Acoustic technique (Echo550; nanoliter range), culturing for 20 minutes at room temperature; 5) Introducing ^33P-ATP (specific activity: 10 μCi/μl) to the reaction mixture to trigger a reaction; 6) Culturing at room temperature and conducting a kinase reaction for 2 hours; 7) Plotting the reaction on P81 ion exchange paper; and 8) Testing the kinase activity with a filter binding assay. The results shown in Table 1 indicate that compounds of Formulae (I)-(III) are potent and selective TYK2/JAK1 inhibitors.

JAK1 [2] = molecular target: T2, JAK1 (Homo sapiens, UniProt P23458); test: JAK1 biochemical test (33P-ATP filter binding, Reaction Biology); settings: read-out: Inhibition of JAK1 (IC50)
T2 construct: purchased Reaction Biology Corp, Malvern, PA (contract testing)
T2 sequence (P23458 whole entry): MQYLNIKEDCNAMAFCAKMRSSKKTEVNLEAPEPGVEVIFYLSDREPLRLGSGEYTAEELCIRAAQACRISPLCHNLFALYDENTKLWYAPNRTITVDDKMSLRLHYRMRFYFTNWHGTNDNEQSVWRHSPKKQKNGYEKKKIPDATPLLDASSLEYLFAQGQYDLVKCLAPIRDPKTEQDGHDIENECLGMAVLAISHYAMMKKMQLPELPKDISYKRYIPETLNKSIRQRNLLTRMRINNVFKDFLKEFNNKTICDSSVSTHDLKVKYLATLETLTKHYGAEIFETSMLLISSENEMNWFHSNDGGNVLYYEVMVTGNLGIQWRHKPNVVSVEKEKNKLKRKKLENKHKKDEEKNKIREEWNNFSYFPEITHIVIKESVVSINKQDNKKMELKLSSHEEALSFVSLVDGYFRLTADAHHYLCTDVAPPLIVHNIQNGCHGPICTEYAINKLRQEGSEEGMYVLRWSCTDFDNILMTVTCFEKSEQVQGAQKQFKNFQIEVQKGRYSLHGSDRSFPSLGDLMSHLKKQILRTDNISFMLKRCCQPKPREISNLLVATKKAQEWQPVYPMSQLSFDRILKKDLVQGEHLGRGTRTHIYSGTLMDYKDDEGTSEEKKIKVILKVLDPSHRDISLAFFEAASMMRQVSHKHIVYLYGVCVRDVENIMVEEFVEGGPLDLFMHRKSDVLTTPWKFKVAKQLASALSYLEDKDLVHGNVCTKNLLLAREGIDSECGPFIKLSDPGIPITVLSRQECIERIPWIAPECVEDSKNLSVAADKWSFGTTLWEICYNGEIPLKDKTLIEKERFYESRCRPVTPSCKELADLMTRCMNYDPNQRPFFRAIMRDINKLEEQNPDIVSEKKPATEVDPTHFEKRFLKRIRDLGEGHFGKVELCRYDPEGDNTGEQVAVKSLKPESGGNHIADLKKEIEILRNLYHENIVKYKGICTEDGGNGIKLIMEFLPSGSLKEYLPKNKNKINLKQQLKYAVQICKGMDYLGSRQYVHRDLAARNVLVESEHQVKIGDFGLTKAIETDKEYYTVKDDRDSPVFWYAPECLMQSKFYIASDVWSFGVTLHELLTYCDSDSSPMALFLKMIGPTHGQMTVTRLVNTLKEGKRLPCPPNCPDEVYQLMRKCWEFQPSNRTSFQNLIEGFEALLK
Experimental: as §1

JAK2 = molecular target: T3, JAK2 (Homo sapiens, UniProt O60674); test: JAK2 biochemical test (33P-ATP filter binding, Reaction Biology); settings: read-out: Inhibition of JAK2 (IC50)
T3 construct: purchased Reaction Biology Corp, Malvern, PA (contract testing)
T3 sequence (O60674 whole entry): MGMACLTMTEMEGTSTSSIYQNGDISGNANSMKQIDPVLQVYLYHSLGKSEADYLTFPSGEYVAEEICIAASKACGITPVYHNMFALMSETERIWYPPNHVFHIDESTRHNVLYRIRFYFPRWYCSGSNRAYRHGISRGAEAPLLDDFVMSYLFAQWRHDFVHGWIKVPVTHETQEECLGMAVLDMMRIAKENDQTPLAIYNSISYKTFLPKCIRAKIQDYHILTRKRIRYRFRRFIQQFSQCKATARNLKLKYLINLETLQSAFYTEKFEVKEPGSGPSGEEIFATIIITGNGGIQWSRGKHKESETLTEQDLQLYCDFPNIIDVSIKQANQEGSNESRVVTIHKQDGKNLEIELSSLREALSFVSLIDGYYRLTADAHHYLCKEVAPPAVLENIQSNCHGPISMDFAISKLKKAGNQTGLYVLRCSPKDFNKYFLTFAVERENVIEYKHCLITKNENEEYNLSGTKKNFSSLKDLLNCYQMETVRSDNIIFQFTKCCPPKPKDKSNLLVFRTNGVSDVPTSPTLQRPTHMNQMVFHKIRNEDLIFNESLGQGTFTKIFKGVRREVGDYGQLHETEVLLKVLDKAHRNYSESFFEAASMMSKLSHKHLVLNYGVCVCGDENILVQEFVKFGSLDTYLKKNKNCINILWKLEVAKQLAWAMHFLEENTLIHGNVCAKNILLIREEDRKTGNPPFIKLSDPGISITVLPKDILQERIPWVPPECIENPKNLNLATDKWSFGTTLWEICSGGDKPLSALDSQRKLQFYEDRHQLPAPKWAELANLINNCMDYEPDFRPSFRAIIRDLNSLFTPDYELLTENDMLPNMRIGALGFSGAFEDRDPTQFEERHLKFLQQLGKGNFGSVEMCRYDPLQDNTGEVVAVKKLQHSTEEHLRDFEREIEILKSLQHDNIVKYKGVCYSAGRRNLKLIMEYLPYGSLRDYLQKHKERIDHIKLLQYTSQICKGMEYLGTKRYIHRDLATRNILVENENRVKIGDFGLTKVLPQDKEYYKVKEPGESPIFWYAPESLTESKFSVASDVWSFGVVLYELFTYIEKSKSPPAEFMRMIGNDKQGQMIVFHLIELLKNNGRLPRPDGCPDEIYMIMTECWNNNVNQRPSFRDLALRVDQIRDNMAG
Experimental: as §1

JAK1 [3] = molecular target: T2, JAK1; test: JAK1 cellular ELISA assay using PBMC cells (IL-6 stimulated STAT3 phosphorylation); assay type: cell-based; settings: IL-6 100 ng/ml, 25 min
Experimental: This testing was performed to test cellular JAK1 activity using the IL-6 stimulated STAT3 phosphorylation assay in PBMC cells. The testing was performed according to the following procedure: 1) Plate PBMC cells to 96-well plate at density of ˜300,000 cell/well; 2) Add different concentrations of test article to wells, maintain in incubator at 37° C. and 5% CO2 for 1 hour; 3) Add IL-6 (final concentration: 100 ng/ml) to stimulate for 25 min in the above incubator; 4) After stimulation, transfer the suspension to 1.5 mL tube, centrifuge at 200 g for 5 min, collect cells, add 100 μL 1× lysate, lyse on ice for 1 hour; 5) Centrifuge at 4° C. and 12000 rpm for 10 min, take the supernatant and analyze according to instructions of the ELISA kit. In this assay, compounds of Formulae (II) and (III) had IC50<300 nM.

TYK2 [4] = molecular target: T1, TYK2; test: TYK2 cellular ELISA assay using NK92 cells (IL-12 and IL-18 stimulated IFNγ excretion); assay type: cell-based; settings: IL-12 2 ng/ml, IL-18 5 ng/ml, 24 hours
Experimental: This testing was performed to test cellular TYK2 activity using IL-12 and IL-18 stimulated IFNγ excretion assay in NK92 cells. The testing was performed according to the following procedure: 1) Replace NK92 cell media containing IL-2 with media not containing IL-2, maintain overnight; 2) Plate NK92 cells to 96-well plate at density of ˜150,000 cell/well; 3) Add different concentrations of test article to wells, maintain in incubator at 37° C. and 5% CO2 for 1 hour; 4) Add IL-12 (final concentration: 2 ng/ml) and IL-18 (final concentration: 5 ng/ml) to stimulate for 24 hours in the above incubator; 5) After 24 hours, centrifuge at 2000 rpm for 5 min, take the supernatant and analyze according to instructions of the ELISA kit. In this assay, compounds of Formulae (II) and (III) had IC50<100 nM.

[5] = Brain penetration in rats; assay type: in vivo; settings: male, rat, 10 mg/kg oral gavage, 8 hour post-dosing
Experimental: This testing was performed to test the ability of compounds to penetrate the blood-brain-barrier in rats. The testing was performed according to the following procedure: 1) For each compound, take 3 male rats with body weight of 217-228 g, formulate compound using 0.5% HPMC/water suspension at concentration of 1 mg/ml; 2) After fasting overnight, administer compound at 10 mg/kg by oral gavage; 3) Take plasma samples at 1, 2, 4, 8 hours post-dosing; 4) At 8 hour post-dosing, also take brain tissues and cerebrospinal fluid (CSF); 5) Analyze compound concentration in plasma, brain tissue, and CSF using LC-MS/MS method.

JAK3 = molecular target: T4, JAK3 (Homo sapiens, UniProt P52333); test: JAK3 biochemical test (33P-ATP filter binding, Reaction Biology); settings: read-out: Inhibition of JAK3 (IC50)
T4 construct: purchased Reaction Biology Corp, Malvern, PA (contract testing)
T4 sequence (P52333 1-1124): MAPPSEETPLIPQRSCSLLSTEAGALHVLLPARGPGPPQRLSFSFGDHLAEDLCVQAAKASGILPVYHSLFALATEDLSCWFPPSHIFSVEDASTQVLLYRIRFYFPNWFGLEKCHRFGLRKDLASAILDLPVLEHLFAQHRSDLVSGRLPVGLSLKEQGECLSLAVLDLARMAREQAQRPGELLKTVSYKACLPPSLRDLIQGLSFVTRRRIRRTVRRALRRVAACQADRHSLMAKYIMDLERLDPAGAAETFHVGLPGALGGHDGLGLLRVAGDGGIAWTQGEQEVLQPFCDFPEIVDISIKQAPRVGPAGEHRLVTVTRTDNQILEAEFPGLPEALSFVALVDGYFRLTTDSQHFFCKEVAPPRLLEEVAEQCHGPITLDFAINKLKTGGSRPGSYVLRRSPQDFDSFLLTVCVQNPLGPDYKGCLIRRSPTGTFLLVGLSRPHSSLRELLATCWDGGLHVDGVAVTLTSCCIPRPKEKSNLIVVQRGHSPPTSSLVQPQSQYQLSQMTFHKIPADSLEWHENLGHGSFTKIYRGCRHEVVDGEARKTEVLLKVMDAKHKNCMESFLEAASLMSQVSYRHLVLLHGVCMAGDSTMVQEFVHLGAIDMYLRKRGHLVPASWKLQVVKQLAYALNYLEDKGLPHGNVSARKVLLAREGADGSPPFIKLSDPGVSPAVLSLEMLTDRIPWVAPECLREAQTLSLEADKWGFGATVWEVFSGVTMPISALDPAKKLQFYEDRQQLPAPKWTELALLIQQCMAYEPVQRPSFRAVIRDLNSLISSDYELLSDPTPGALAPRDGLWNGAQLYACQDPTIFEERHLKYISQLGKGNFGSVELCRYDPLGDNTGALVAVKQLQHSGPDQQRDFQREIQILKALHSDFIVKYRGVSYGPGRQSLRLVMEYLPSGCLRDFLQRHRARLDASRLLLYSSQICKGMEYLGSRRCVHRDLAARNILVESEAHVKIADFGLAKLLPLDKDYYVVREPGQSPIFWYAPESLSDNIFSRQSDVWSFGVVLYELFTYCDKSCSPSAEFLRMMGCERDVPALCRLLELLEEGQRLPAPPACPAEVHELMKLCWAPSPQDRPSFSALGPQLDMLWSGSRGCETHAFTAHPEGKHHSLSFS
Experimental: as §1

[6] = Brain penetration in mice; assay type: in vivo, C57BL/6 mice; settings: male, mouse, 30 mg/kg oral gavage, 4-hour post-dosing
Experimental: This testing was performed to test the ability of compounds to penetrate the blood-brain-barrier in mice. The testing was performed according to the following procedure: 1) for each compound, take 3 male C57BL/6 mice with body weight of 17-18 g, formulate compound using 0.5% HPMC/water suspension at concentration of 3 mg/ml; 2) After fasting overnight, administer compound at 30 mg/kg by oral gavage; 3) Take plasma samples at 1, 2, 4 hours post-dosing; 4) At 4-hour post-dosing, also take brain tissues and cerebrospinal fluid (CSF) fluid; 5) Analyze compound concentration in plasma, brain tissue, and CSF fluid using LC-MS/MS method.

| pIC50 (TYK2 [1]) | pIC50 (JAK1 [2]) | pIC50 (JAK2) | pIC50 (JAK1 [3]) | pIC50 (TYK2 [4]) | Kp at 8 h ([5]; CSF/plasma, read-out: CSF (ng/ml)/ Plasma (ng/ml)) | Kp at 8 h ([5]; brain/plasma, read-out: Brain (ng/ml)/ Plasma (ng/ml)) | pIC50 (JAK3) | Kp at 4 h ([6]; C57BL/6, CSF/plasma, read-out: CSF (ng/ml)/ Plasma (ng/ml)) | Kp at 4 h ([6]; C57BL/6, brain/plasma, read-out: Brain (ng/ml)/ Plasma (ng/ml)) | Structure (SMILES) |
| --- | --- | --- | --- | --- | --- | --- | --- | --- | --- | --- |
| > 7.00 | > 8.00 | < 6.70 | – | – | – | – | – | – | – | CCc1nc2cnc3ccoc3c2n1[C@H]1CC[C@H](CC#N)OC1 [Formula (I)] |
| > 8.00 | > 8.00 | < 7.70 | > 6.52 | > 7.00 | > 0.15 | > 0.4 | < 7.00 | > 0.15 | > 0.3 | Cc1nc2cnc3ccoc3c2n1[C@H]1CC[C@H](CC#N)CC1 [Formula (III)] |
